# Laboratory results as given in US11534412B2, “Application of totarol and pharmaceutical composition containing totarol” (Emergopharm SP. Z O.O. SP.K., priority 2017, dated 2022).
# Where two headings read alike, the source gives them in different places.
# Tests used:
# [1] = system: human vaginal epithelial cells of the A-431 cell line; assay type: cell-based
# Procedure: Test of totarol impact on the human vaginal epithelial cells of the A-431 cell line (ATCC® The study was carried out using the following test: Annexin-V-Fluos (Roche, Mannheim, Germany), during incubation for 2, 8 and 24 hours, under in vitro conditions, according to the instructions of the test's manufacturer. The totarol sample was prepared by dissolution of 3 mg of totarol in 3 ml of 100% DMI.
# The cultivation time for the A-431 cell line was 20 days. The culture was carried out at a temperature of 37° C. in an atmosphere containing 10% CO2, on a DMEM culture medium (Institute of Immunology and Experimental Therapy PAS [IITD PAN], Wroclaw), with an addition of 10% of foetal bovine serum (FBS, Sigma-Aldrich). The culture fluid were being replaced regularly every 48 hours. After achieving a decantable growth or the so-called “monolayer”, the cells were passaged using (for approx. 10 min) 0.25% trypsin (Sigma-Aldrich). Then, the obtained tissue line was passed to 24-well plates (TPP), adjusting their densities to the value of 5×10^5 per well. The tissue culture of the studied lines was carried out for 3 next days on the surface of sterile microscope slides placed on the bottom of a 24-well plate, until a decantable growth was obtained on the surface of the microscope slides. After obtaining the so-called “monolayer”, the cells were washed with PBS without Ca^2+ and Mg^2+ ions (IITD PAN, Wroclaw), and poured with 700 µl of fresh DMEM medium with 10% FBS, together with 300 μl of properly prepared totarol. • Negative control: 1000 μl of fresh DMEM medium with 10% FBS. • Solvent control: 700 μl of fresh DMEM medium with 10% FBS+300 μl of DMI solvent. • Necrosis positive control: 900 μl of fresh DMEM medium with 10% FBS+100 μl H2O2 (30%). The proper examination using the Annexin-V-Fluos test causes green staining of apoptotic cells. […] This dye has an ability to penetrate the cell's interior freely only through a damaged cellular membrane, staining the interior red. In the case of a lack of damages of the cellular membrane, propidium iodide remains on its surface, forming a characteristic red “halo” around the cell. After a corresponding study time, i.e. 2, 8, and 24 hours, the culture fluid was removed, the content was washed with PBS (pre-heated to a temperature of 37° C.) twice. Then, 100 μl of the fluorescent stains mixture including in the Annexin-V-Fluos (Roche) kit were applied on the surface of each microscope slide (placed in a culture well) and additionally, Hoechst stain was used (cellular DNA staining). The staining procedure was carried out according to the manufacturer's recommendations. The culture together with the stains applied onto it were incubated at room temperature for 20 min. The intensity of light emitted by the cells stained with the individual stains was observed using a fluorescent microscope at the wavelength of 494-520 nm, using 400× magnification. The cells were counted in five visual fields, and the results were averaged. The reliability of the tests carried out is confirmed by hydrogen peroxide used as a positive control, causing a distinct necrosis process already after 2 hours of incubation. Data analyses were carried out on the basis of the average number of cells from five visual fields in the individual times (2, 8, and 24 h). The results are presented in Table 6 and in the form of photographic documentation—FIGS. 1, 2, 3, 4.
# Solubility in water = assay type: physicochemical
smiles,measurement,setting,value
"CC(C)c1c(O)ccc2c1CC[C@H]1C(C)(C)CCC[C@]21C [Totarol, totarol]","apoptosis and necrosis in epithelial cells, photographic documentation",[1],No apoptosis and necrosis
same,apoptotic and necrotic impact on human vaginal epithelial A-431 cells,[1],lack of apoptotic and necrotic impact
same,Alive cells,"[1]; human, 2 h, 0.3 mg/mL",100
same,Apopt. cells,"[1]; human, 2 h, 0.3 mg/mL",0
same,Necrot. cells,"[1]; human, 2 h, 0.3 mg/mL",0
same,Alive cells,"[1]; human, 8 h, 0.3 mg/mL",100
same,Apopt. cells,"[1]; human, 8 h, 0.3 mg/mL",0
same,Necrot. cells,"[1]; human, 8 h, 0.3 mg/mL",0
same,Alive cells,"[1]; human, 24 h, 0.3 mg/mL",100
same,Apopt. cells,"[1]; human, 24 h, 0.3 mg/mL",0
same,Necrot. Cells,"[1]; human, 24 h, 0.3 mg/mL",0
same,solubility in water,Solubility in water,complete lack of solubility in water
